System: K562 cells
Experiment: Apoptosis in K562 cells (Annexin V / propidium iodide)
Type: cell-based, human
Protocol: Experiment 34: Apoptosis in K562 Cells Induced by Tig-S • 1. Cells: Human leukemia cells K562 cultured in RPMI1640 medium. • 2. Drug: Tig-S (1000× stock solution in DMSO). • 3. Start cells concentration: 500000/ml. • 4. Cells were cultured with drug (0-20 ug/ml) for Two days. • 5. Collect cells from culture (1-4 million) by centrifugation (136×g for 5 min. remove supernatant). • 6. Wash cells with 1 ml of cold PBS, collect cells by centrifugation (136×g, 5 min, remove supernatant). • 7. Re-suspend cells in 200 ul Binding buffer (10 mM HEPES, 140 mM NaCl, 2.5 mM CaCl2, pH 7.4). • 8. Stained cells by adding 10 ul Annexin V (Alexa Fluor 488, Invitrogen cat #A13201), and 2 ul Propidium iodide (1 mg/ml in water) to cell suspension. Mix. • 9. Sit at Room temperature for 15 min. • 10. Wash cells with 1 ml binding buffer. Collect cells by centrifugation. • 11. Re-suspend cells with in 1 ml of binding buffer for analysis by flow cytometry. • 12. Flow Cytometry analysis was performed in Baylor Core Facility with a LSRII instrument. • 13. Analysis: Control cells stained with PI or Annexin V-488 (Annexin V-FITC) alone were served as references. About 50000 cells were analyzed for each sample. • 14. Cell distribution in following groups: live, early apoptosis, late-apoptosis, total apoptosis and dead cells were determined. • 15.

CC=C(C)C(=O)OCC1(C)C(O)CCC2(C)C1CCC1(C)C2CC=C2C3CC(C)(C)C(OC(=O)C(C)=CC)C(O)C3(CO)C(O)CC21C (stereo not shown) [Tig-S]
mechanism of cell-death: induces cell-death by the apoptosis mechanism

— patent US20230159436A1, “APPLICATIONS OF AMIDE ANALOGS OF TRITERPENES IN CURES OF CANCER AND OTHER DISEASES” (Pacific Arrow Limited, priority 2021, published 2023)
